Measured values: US20220380443A1, “TARGETING NAPA-LINKED PEP[…] TREATING LYME DISEASE” (priority 2021, published 2022)

Tests used:
[1] = test system: dHL-60 cells; assay: dHL-60 cell (neutrophil) migration in microfluidic competitive chemotaxis-chip (μC3); format: cell-based, Human; settings: 125 μg/mL PG sample, 10 nM fMLP, 100 nM LTB4, 5 hours; for Percentage of Cells Migrated toward stimulus: mean±SD of three biological replicates
Description: Fresh, mixed donor human peripheral blood mononuclear cells (PBMCs) (Zen-Bio) were re-suspended in PBMC media (Zen-Bio) overnight prior to stimulations. Human NOD2 reporter cells, which were used to detect PG in OMVs (see below), were purchased from Invi-vogen and cultured as recommended by the manufacturer. Human promyelocytic leukemia cells (HL-60 CCL-240, American Type Culture Collection ATCC, Manassas, Va.) were cul-tured in complete media comprising of Iscove's Modified Dulbecco's Medium (IMDM, ATCC, Manassas, Va.) supplemented with 10% fetal bovine serum (FBS, ATCC, Manassas, Va.) at 37° C. in 5% CO2, according to ATCC instructions. HL-60 cells were differentiated into a neutrophil-like state with 1.5% dimethyl sulfoxide (DMSO, Sigma-Aldrich, St. Louis, Mo.) to 1.5×10^5 cells/mL for five days. Differentiated HL-60 cells (dHL-60 cells) were stained with Hoechst solution [20 mM] for 10 minutes (Thermo Fisher Scientific, Waltham, Mass.) at 37° C. and 5% CO2 and spun down and re-suspended into a concentration of 5.0×10^7 cells/mL immediately before use in the migration assay.
The microfluidic competitive chemotaxis-chip (μC3) was used to perform each migration assay. This device allowed for the creation of a dual gradient through two opposing chemoattractant reservoirs. The central cell-loading chamber is connected to the two reservoirs by perpendicular cell migration ladders (measured 10 μm wide×10 μm tall). Device fabrication was as previously. Briefly, two layers of photoresist (SUB, MicroChem), the first one 10 μm thin (corresponding to the migration channels) and the second one 70 μm thick (corresponding to the neutrophil loading chamber) were patterned on one silicon wafer sequentially using two photolithographic masks and processing cycles according to the instructions from the manufacturer. The wafer with patterned photoresist was used as a mold to produce polydimethylsiloxane (PDMS) (Sylgard 184, Elsworth Adhesives, Wilmington, Mass.) devices, which were then bonded to the base of glass-bottom 6-well plates (MatTek Corp., Ashland, Mass.), using an oxygen plasma machine (Nordson March, Concord, Calif.). Prior to each migration assay, the device was primed with fibronectin (Sigma-Aldrich, St. Louis, Mo.) (11 μg/mL). After priming with fibronectin, each device was covered in 4 mL complete media. […]
Each assay was visualized on a fully automated Nikon TiE microscope using a Plan Fluor 10×Ph1 DLL (NA=0.3) lens with a biochamber heated to 37° C. with 5% CO2. […] Image analysis of cell migration counts was analyzed automatically using ImageJ Cell tracking was conducted using an automated tracker, TrackMate (custom tracking and analysis codes are available for download at https://github.com/boribong/Single-Cell-Migration-Tracking) and ImageJ software (NIH). […]

[2] = test system: B. burgdorferi 5A11 and 5A11/napA; assay: Lysozyme and NaCl stress tests (microtiter growth, colony forming units); format: cell-based, Borrelia burgdorferi; settings: microtiter plate, end-point after 6 days, FIG. 7A
Description: Initial studies geared towards understanding both permissive and restrictive growth conditions upon stress were performed in microplates with serial dilutions. Each strain was cultured to ˜1×10^6 cells/mL and subsequently back diluted to a final concentration of 1×10^4 cells/mL in fresh B SKIT containing cell-wall stress. Lysozyme and NaCl were serially diluted 1:1. The final concentration of Lysozyme ranged from 2 mg/mL to 0 mg/mL, while NaCl varied from 500 nM to 7.8 mM. […] Both microtiter plates contained 4 wells of uninoculated media, which served as a negative control. These 96 well plates were allowed to incubate at 37° C. under 5% CO2 for 6 days. Afterwards, they were placed at ambient conditions for 2 hours before being imaged.
Parental and NapA mutant bacteria were cultured to ˜6.5×10^6 cells/mL and back diluted to a final starting concentration of 10^6 cells/mL. Each culture was stressed with Lysozyme (0.37 mg/mL) or NaCl (0.111 M) for 24 hours without additional antibiotic selection. Afterwards, each culture was plated using standard methods [92] and cultured at 37° C. under 5% CO2.

## CCCCC/C=C\C[C@@H](O)/C=C/C=C/C=C\[C@@H](O)CCCC(=O)O [LTB4, Leukotriene B4]
[1]
  dHL-60 Cell Velocity, cells migrating toward stimulus: 7.04±4.90 μm/min
  Percentage of Cells Migrated toward stimulus: 25.89±3.52%

## [Cl-].[Na+] [NaCl]
[2]; NaCl 7.8 to 500 mM
  resistance of wild-type cells to NaCl-induced stress versus 5A11/napA: more than 8 times

## Formylmethionine-leucyl-phenylalanine [fMLP]
[1]
  dHL-60 Cell Velocity, cells migrating toward stimulus: 6.93±4.40 μm/min
  Percentage of Cells Migrated toward stimulus: 35.94±5.42%

## Lysozyme
[2]; Lysozyme 0 to 2 mg/mL
  less enzyme needed to ablate 5A11/napA growth than wild-type bacteria: 5-6 times
